From US5912247A, “Quinazoline compound and anti-tumor agent containing said compound as an active ingredient” (Kanebo, Ltd., priority 1995, dated 1999)
Counter-ions that a name gives are not always drawn.

Columns and labels:
Colon 26 solid tumor = assay: Inhibitory activity of dye accumulation in the solid tumor tissue (inhibition of the tumor blood flow); type: in vivo, Male BALB/c mice; design: key to Inhibitory activity of dye accumulation into solid tumor: +: The average absorbance in the test group is significantly smaller than the average absorbance in the control group.; -: There is no significant difference in the average absorbance between the test group and the control group; details: for Inhibitory activity of dye accumulation into solid tumor: intravenous, Evans blue 1 hour after administration
Description: Inhibitory activity of dye accumulation in the solid tumor tissue (inhibition of the tumor blood flow): a) Materials: Test Animal: Male BALB/c mice (weighing 21-27 g, six mice per group) Tumor: Colon 26 solid tumor b) Test Method: Colon 26 solid tumor was cut in a size of about 1 mm square. The pieces of solid tumor were treated with a 0.25% collagenase solution and 0.02% deoxyribonuclease solution at 37° C. for 1.5 hour to give a cell suspension of colon 26 solid tumor cells. The cell suspension was adjusted to 3×10^6 cells/ml and the cell suspension (100 μl) was subcutaneously inoculated on the right back of male BALB/c mice. Ten days after the transplantation, the longitudinal size of the tumor was measured, and when the longitudinal size of the tumor reached about 10 mm, the mice were randomized. To the mice in test groups, the test compound was intravenously administered in an amount of 10 mg/kg or 1.25 mg/kg. The test compound was administered in the form of a solution in saline (in the test solution of Test Compound BF and BK, an equimolar amount of fumaric acid was further added, and in the test solution of Test Compound BN, an equimolar amount of hydrochloric acid was further added). To the mice in the control group, only saline was administered intravenously. One hour after the administration, 3% Evans blue-saline solution was injected intravenously via the tail vein of the mice in a volume of 0.1 ml per 10 g of the body weight of mouse, and 5 minutes later the mice were killed by luxation of the cervical vertebrae. After removing the tumor, the tumor was weighed. To extract Evans blue, the tumor was suspensed in 0.5% aqueous sodium sulfate (1.5 ml per 1 g of the tumor) and acetone (3.5 ml per 1 g of tumor), and then the tumor was cut into small pieces. After allowing to stand at room temperature overnight, the suspension were centrifuged at 3,000 rpm for 10 minutes to extract Evans blue, and the absorbance of the supernatant was read at 630 nm. […] (-): There is no significant difference in the average absorbance between the test group and the control group.

[1] = test system: St-4 solid tumor (human gastric cancer transplantable to nude mouse); assay: Anti-tumor activity against human gastric cancer St-4 (solid tumor) transplanted to nude mouse; type: in vivo, human (in male BALB/cA JCI-nu nude mice)
Excerpt: Anti-tumor activity against human gastric cancer St-4 (solid tumor) transplanted to nude mouse: a) Materials: Test Animal: Male BALB/cA JCI-nu nude mice (six week old, six mice per group) Tumor: St-4 solid tumor (human gastric cancer transplantable to nude mouse) b) Test Method: St-4 solid tumor was cut to about 3 mm cubic, and the fragments were subcutaneously transplanted into the back at one side of the nude mice with a trockar. Ten days after the transplantation, the longitudinal size (L) and the size of the width direction (W) of the tumor were measured. The tumor weight was calculated by the formula: L×W×W/2, and when the weight of the tumor reached 100 mg to 300 mg, the mice were randomized. To the mice in test groups, the test compound was orally administered once a day for 40 days. The test compounds of this invention were administered in an amount of 30 mg/kg or 40 mg/kg in the form of a solution in distilled water, and No. 5666 was administered in an amount of 30 mg/kg or 100 mg/kg in the form of a suspension in 5% arabic gum solution. After the administration of the test compounds, the longitudinal size and the size in the width direction of the tumor were measured, and then the weight of tumor was calculated. The ratio of the tumor weight after treated with test compounds to the tumor weight before administration of test compounds (i.e. the relative tumor weight) was determined. As to the control group, the relative tumor weight was also determined likewise. The anti-tumor activity was evaluated in the same manner as described in Ann. Clin. Lab. Sci., 8 (1), 50 (1978). That is, the ratio of the relative tumor weight in the test group (T) to that in the control group (C) [T/C (%)] was calculated, and when the minimum of the ratio [Min.

Acute toxicity = details: mouse, in vivo, one week observation
Description: Test Animal: Male ddY mice (5 week old, five mice per group)
To male ddY mice was administered a solution of a test compound in saline intravenously, or a solution of a test compound in distilled water orally. One week after the administration, the number of death of mice was counted, and the LD50 was calculated therefrom by a probit method.

Hemolytic activity = type: cell-based, Male Donryu rats; details: rat, red blood cells; 20 μg/ml, 37° C., 60 minutes; read-out: hemolytic ratio
Description: (§1) Hemolytic activity: a) Materials: Test Animal: Male Donryu rats Test Compounds: The same as in Experiment 1 b) Test Method: Blood (about 6 ml or more) was collected from abdominal large vein of male Donryu rats, which was taken in a test tube containing dipotassium ethylenediamine tetraacetate (10 mg). The blood thus collected was divided into each 2 ml, which was centrifuged at 3,000 rpm for 5 minutes. After removing the supernatant, a 150 mM phosphate buffer (pH 7.4) (10 ml) was added thereto, and the mixture was mildly mixed. The mixture was centrifuged at 3,000 rpm for 5 minutes, followed by washing with the same phosphate buffer as above. This procedure was repeated twice. Finally, the same phosphate buffer was added thereto to prepare a test blood cell suspension. The test compound was dissolved in a saline solution in a concentration of 2 mg/ml in case of No. 5666, and of 20 mg/ml in case of the test compounds of this invention. […] Immediately after the incubation, the mixture was centrifuged at 3,000 rpm for 5 minutes, and the supernatant (each 200 μl) was added to a well of a 96 well microplate (an immunoassay plate with plane bottom), and the absorbance (OD: optical density) was read with a microplate reader (at a wavelength of 550 nm). […] The hemolytic rate was calculated by the following equation: [formula] […]

[2] = test system: test blood cell suspension; assay: Hemolytic activity; type: cell-based, Male Donryu rats; details: 20 μg/ml
Description: as §1

SMILES	Inhibitory activity of dye accumulation into solid tumor (Colon 26 solid tumor; 1.25 mg/kg)	Inhibitory activity of dye accumulation into solid tumor (Colon 26 solid tumor; 10 mg/kg)	Evaluation ([1]; 30 mg/kg (po) (× 40 days))	Min. T/C (%) ([1]; 30 mg/kg (po) (× 40 days))	other results
CC(=O)O.O[C@@H]1COC[C@H]1Oc1nc(N2CCNCC2)nc2ccccc12 [Compound AI, 4-[(3R,4R)-(4-Hydroxytetrahydrofuran-3-yl)oxy]-2-(1-piperazinyl)quinazoline monoacetate]	+	+			Evaluation ([1]; 40 mg/kg (po) (× 40 days)): Effective (when the minimum of the ratio [Min. T/C (%)] was less than 42%, the test compound was evaluated as "effective"); Min. T/C (%) ([1]; 40 mg/kg (po) (× 40 days)): 31.7%
C[C@@H](O)[C@H](O)COc1nc(N2CCNCC2)nc2ccccc12 (racemic) [Compound BF, 4-[(2RS,3RS)-(2,3-Dihydroxybutan-1-yl)oxy]-2-(1-piperazinyl)quinazoline]	+	+			
O[C@@H]1C[C@@H](Oc2nc(N3CCNCC3)nc3ccccc23)C[C@@H]1O [Compound AM, 4-[(t-3,t-4-Dihydroxycyclopentan-r-1-yl)oxy]-2-(1-piperazinyl)quinazoline monohydrochloride]	+	+	Effective (when the minimum of the ratio [Min. T/C (%)] was less than 42%, the test compound was evaluated as "effective")	36.1	LD50 at 168 h (Acute toxicity; Intravenous injection): 101 mg/kg; LD50 at 168 h (Acute toxicity; Oral administration): > 500 mg/kg
CO[C@@H]1C[C@H](Oc2nc(N3CCNCC3)nc3ccccc23)[C@@H](O)[C@H]1O [Compound AR, 4-[(1S,2S,3R,4R)-(2,3-Dihydroxy-4-methoxy-cyclopentan-1-yl)oxy]-2-(1-piperazinyl)quinazoline 1/2 fumarate]	+	+			
C=CCN1CCN(c2nc(OCCCCC)c3ccccc3n2)CC1.O=C(O)/C=C/C(=O)O [No. 5666, 2-(4-Allylpiperazin-1-yl)-4-[(1-pentyl)oxy]-quinazoline monofumarate, reference compound]	-	+	Non-effective	59.7	hemolysis at 1 h (Hemolytic activity): 38%; hemolytic activity (in words) [2]: induced hemolytic activity; inhibition of the flow of blood into tumor tissue / dye accumulation (in words) (Colon 26 solid tumor; mouse solid tumor (colon 26)): has such an inhibitory activity; Evaluation ([1]; 100 mg/kg (po) (× 40 days)): Effective (when the minimum of the ratio [Min. T/C (%)] was less than 42%, the test compound was evaluated as "effective"); Min. T/C (%) ([1]; 100 mg/kg (po) (× 40 days)): 29.9%
O[C@@H]1CCC[C@H]1Oc1nc(N2CCNCC2)nc2ccccc12 [Compound AE, 4-[(1R,2R)-(2-Hydroxycyclopentan-1-yl)oxy]-2-(1-piperazinyl)quinazolinemonoacetate]	+	+			
CC(=O)O.O[C@@H]1COC[C@H]1Oc1nc(N2CCNCC2)nc2ccccc12 (relative stereo) [Compound AF, 4-[trans-(4-Hydroxytetrahydrofuran-3-yl)oxy]-2-(1-piperazinyl)quinazoline monoacetate]	+	+			
Cl.OC[C@H](O)CCOc1nc(N2CCNCC2)nc2ccccc12 [Compound BJ, 4-[(3R)-(3,4-Dihydroxybutan-1-yl)oxy]-2-(1-piperazinyl)quinazoline monohydrochloride]	+	+	Effective (when the minimum of the ratio [Min. T/C (%)] was less than 42%, the test compound was evaluated as "effective")	38.8	LD50 at 168 h (Acute toxicity; Intravenous injection): 118 mg/kg; LD50 at 168 h (Acute toxicity; Oral administration): > 1000 mg/kg
